This assay concerns male C57B1/6J mice subjected to hypoxia (10% O2). Description: Hypoxia model of experimental pulmonary hypertension. The format is in vivo. The settings on record: hypoxia (10% O2) for 7 or 10 days; 300 ppm of compound in the feed for 10 days; lung histology; compared with the hypoxia control animals (FIG. 1). An excerpt: The method for investigating the effect of the compound (IV) of the invention in the model of experimental pulmonary hypertension was as described (Dumitrascu R, Weissmann N, Ghofrani H A, Beuerlein K, Schmidt H H H W, Stasch J P, Gnoth M J, Seeger W, Grimminger F, Schermuly R T, Activation of soluble guanylate cyclase reverses lung vascular remodeling and pulmonary hypertension evoked by hypoxia in mice, Circulation 2006, 113: 286-295). For this purpose, male C57B1/6J mice (Charles River Laboratories) were subjected to hypoxia (10% O2) for 7 or 10 days. The control animals were kept in a normal oxygen environment. The mice were treated for 10 days with 300 ppm of compound (IV) in the feed. At the end of the test, the mice were sacrificed and the lungs were isolated. Histological workup and evaluation was carried out as in the abovementioned publication.

As for `COC(=O)N(C)c1c(N)nc(-c2nn(Cc3ccccc3F)c3ncccc23)nc1N` [Compound (IV)], the “non-muscularized and partly muscularized fraction of the pulmonary vessels” value is given as “significantly reduced”.

Source of the values: patent publication US20090286781A1, “Use of Suluble Guanylate Cyclase Acitvators for Treating Acute and Chronic Lung Diseases” (Bayer HealtHCare AG, priority 2005, published 2009).
